This note sets out measurements from US12612386B2, “Heteroaryl-triazole compounds as pesticides” (Bayer Aktiengesellschaft, priority 2020, dated 2026).

Molecules are shown by their SMILES.

Holding throughout (assay type): in vivo
Assay [1] concerns adult mosquitoes Aedes aegypti strain MONHEIM. The assay is described as follows: Aedes aegypti test (AEDSAE surface treatment & contact assay). Conditions: 24 hours after contact, read-out: efficacy (mortality); for mortality at 4 mg/m2: surface concentration 4 mg/m^2, 30 min exposure; for mortality at 20 mg/m2: surface concentration 20 mg/m^2, 30 min exposure. As to the method:
Aedes aegypti Test (AEDSAE Surface Treatment & Contact Assay)
Solvent: Aceton+2000 ppm rapeseed oil methyl ester (RME)
This solution is pipetted onto a glazed tile and after evaporation of the acetone, adult mosquitoes of the species Aedes aegypti strain MONHEIM are placed onto the dried surface. The exposure time is 30 minutes. Mortality in percent (%) is determined 24 hours after contact of the insects to the treated surface. 100% mortality means that all tested insects are dead, whereas 0% means that no insect died.

Assay [2] deals with cattle tick larvae (Rhipicephalus microplus), strain Parkhurst, resistant against synthetic pyrethroids. Nature of the assay: Rhipicephalus (Boophilus) microplus in-vitro contact test, larval cattle tick. Conditions: 5 μg/cm^2 (=500 g/ha), after 48 hours. Here is the method: Rhipicephalus (Boophilus) Microplus—In-Vitro Contact Tests Larval Cattle Tick (Strain Parkhurst, Resistant Against Synthetic Pyrethroids)
(§1) 9 mg compound is solved in 1 mL acetone and diluted with acetone to the desired concentration. 250 μL of the test solution is filled in 25 mL glass test tubes and homogeneously distributed on the inner walls by rotation and tilting on a shaking device (2 h at 30 rpm). With a compound concentration of 900 ppm, an inner surface of 44.7 cm^2 and a homogeneous distribution, a dose of 5 μg/cm^2 is achieved.
After the solvent has evaporated, each test tube is filled with 20-50 cattle tick larvae (Rhipicephalus microplus), closed with a perforated lid and incubated in a horizontal position at 85% relative humidity and 27° C. in an incubator. After 48 hours efficacy is determined. The larvae are patted on the ground of the tubes and negative geotactic behavior is recorded.
An efficacy of 100% means all larvae are dead or moribund; 0% means no larvae are dead or moribund.

The subject of assay [3] is larvae of the banded cucumber beetle (Diabrotica balteata). The assay is described as follows: Diabrotica balteata spray test. The note with it: 168 h, 100 g/ha (=32 μg/well), after 7 days, read-out: efficacy (seedling growth). The gist of the method:
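Germinated wheat seeds on agar (5 per well) were sprayed with compound formulated in acetone/DMF and diluted in water with 1000 ppm emulsifier. Each unit was then infested with 10–20 larvae. Efficacy % was scored after 7 days as seedling growth relative to an untreated, uninfested control (100% = normal growth).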

Assay [4] relates to fall armyworm larvae (Spodoptera frugiperda). Nature of the assay: whole plant or invertebrate. The note with it: 168 h. The gist of the method: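 Maize leaf sections sprayed with compound in acetone/DMF with alkylarylpolyglycol ether emulsifier diluted in water, then infested with fall armyworm larvae once dry. Mortality (%) scored after 7 days; 100% = all caterpillars killed.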

For assay [5], the system named is adult brown dog ticks (Rhipicephalus sanguineus). The assay is described as follows: Rhipicephalus sanguineus in-vitro contact test, adult brown dog ticks. Conditions: 48 h, read-out: efficacy (ticks dead or moribund). Here is the method:
Rhipicephalus sanguineus—In-Vitro Contact Tests with Adult Brown Dog Ticks
as §1
After the solvent has evaporated, each test tube is filled with 5-10 adult brown dog ticks (Rhipicephalus sanguineus), closed with a perforated lid and incubated in a lying position at room temperature and relative humidity. After 48 hours efficacy is determined. The ticks are patted on the ground of the tubes and are incubated on a heating plate at 45-50° C. for at most 5 minutes. Immotile or uncoordinated moving ticks, which are not able to escape the heat by climbing upwards, are marked as dead or moribund.
An efficacy of 100% means all ticks are dead or moribund; 0% means no ticks are dead or moribund.

The subject of assay [6] is green peach aphid (Myzus persicae). Nature of the assay: Myzus persicae spray test (MYZUPE). The note with it: 120 h, 100 g/ha, after 5 days. The gist of the method:
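Chinese cabbage leaf disks infested with all instars of Myzus persicae were sprayed with compound formulated in acetone/dimethylformamide and diluted in water with 1000 ppm alkylarylpolyglycol ether emulsifier. Percent mortality was scored after 5 days, 100% meaning all aphids killed.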

The test system of assay [7] is brown planthopper (Nilaparvata lugens). The assay is described as follows: Nilaparvata lugens spray test. The note with it: 96 h. Here is the method:
Nilaparvata lugens—Spray Test
• Solvent: 78.0 parts by weight of acetone • 1.5 parts by weight of dimethylformamide • Emulsifier: alkylarylpolyglycol ether
To produce a suitable preparation of active compound, 1 part by weight of active compound is mixed with the stated amount of solvents and is diluted with water, containing an emulsifier concentration of 1000 ppm, to the desired concentration. Further test concentrations are prepared by dilution with emulsifier containing water.
Rice plants (Oryza sativa) are sprayed with a preparation of the active ingredient of the desired concentration and the plants are infested with the brown planthopper (Nilaparvata lugens).
After 4 days mortality in % is determined. 100% means all planthoppers have been killed and 0% means none of the planthoppers have been killed.

Assay [8] concerns larvae of the southern green stink bug (Nezara viridula). The assay is described as follows: whole plant or invertebrate. Conditions: 96 h. In a few lines: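 Compound in acetone/DMF was diluted in water with 1000 ppm alkylarylpolyglycol ether emulsifier. Barley plants were sprayed with it, then infested with Nezara viridula larvae. Mortality % was scored after 4 days (100% = all killed).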

What is called mortality is the percentage killed. For the compound `C[C@H](NC(=O)c1cc(C(F)(F)F)cc(S(C)(=O)=O)c1)c1ncnn1-c1cc(C#N)ncn1` [I-2], in assay [1], the mortality at 4 mg/m2 lay within 80 to 100% and the mortality at 20 mg/m2 was in the range of 80 to 100%. Moreover, in assay [2], the “efficacy (larvae dead or moribund)” value worked out at 100%. Also, in assay [3], the pest or weed control at 32 µg/disc, 100 g/ha turned out to be 80%.

In assay [4], `C[C@H](NC(=O)c1cc(Br)cc(Br)c1)c1ncnn1-c1cc(C#N)ncn1` [I-4] showed a mortality at 100 g/ha of 100%. In addition, the mortality at 20 mg/m2 in assay [1] was in the range of 80 to 100%. Further, the “efficacy (larvae dead or moribund)” value in assay [2] was determined as 100%. In assay [5], the pest or weed control at 5 µg/cm2, 500 g/ha was found to be 100%. For the same compound, the pest or weed control at 32 µg/disc, 100 g/ha in assay [3] stood at 100%.

In turn, `Cc1nc([C@H](C)NC(=O)c2cc(Cl)cc(SC(F)(F)F)c2)n(-c2cc(C#N)ncn2)n1` [I-6] registered a mortality at 100 g/ha in assay [4] of 100%. For the same compound, the “efficacy (larvae dead or moribund)” value in assay [2] was 100%. Further, the pest or weed control at 5 µg/cm2, 500 g/ha in assay [5] was found to be 100%. In addition, the pest or weed control at 32 µg/disc, 100 g/ha in assay [3] stood at 100%.

For the compound `C[C@H](NC(=O)c1cc(Cl)cc(S(=O)(=O)C(F)(F)F)c1)c1ncnn1-c1cc(C#N)ncn1` [I-7], the mortality at 100 g/ha in assay [6] was found to be 100%; in assay [4], 100%; in assay [8], 90%. For the same compound, the mortality at 20 mg/m2 in assay [1] is 80 to 100%. The values for the mortality at 500 g/ha in assay [7] and in assay [8] were 90% and 100%, respectively. Besides, the pest or weed control at 32 µg/disc, 100 g/ha in assay [3] was determined as 100%.

For the compound `C[C@H](NC(=O)c1cc(OC(F)(F)F)cc(S(C)(=O)=O)c1)c1ncnn1-c1cc(C#N)ncn1` [I-19], the mortality at 100 g/ha in assay [6] stood at 100%. Also, the mortality at 100 g/ha in assay [4] came out at 100%. In addition, in assay [1], the mortality at 4 mg/m2 was 80 to 100% and the mortality at 20 mg/m2 was in the range of 80 to 100%. Besides, in assay [8], the mortality at 100 g/ha stood at 90% and the mortality at 500 g/ha was 100%. In assay [3], the pest or weed control at 32 µg/disc, 100 g/ha is 100%.

As to `Cc1nc([C@H](C)NC(=O)c2cc(OC(F)(F)F)cc(C3CC3)c2)n(-c2cc(C#N)ncn2)n1` [I-25], the mortality at 100 g/ha in assay [4] is 100%. Moreover, in assay [1], the mortality at 4 mg/m2 was 80 to 100% and the mortality at 20 mg/m2 was 80 to 100%. For the same compound, the mortality at 500 g/ha in assay [8] was found to be 100%. The pest or weed control at 32 µg/disc, 100 g/ha in assay [3] is 100%.

With `Cc1nc([C@H](C)NC(=O)c2cc(Br)cc(OC(F)(F)F)c2)n(-c2cc(C#N)ncn2)n1` [I-28], in assay [4], the mortality at 100 g/ha worked out at 100%. In assay [2], the “efficacy (larvae dead or moribund)” value amounted to 100%. In assay [8], the mortality at 500 g/ha was determined as 90%. Further, the pest or weed control at 5 µg/cm2, 500 g/ha in assay [5] is 100%. The pest or weed control at 32 µg/disc, 100 g/ha in assay [3] turned out to be 100%.

With `CC(C)N(C)C(=O)c1cc(-n2ncnc2[C@H](C)NC(=O)c2cc(Br)cc(Br)c2)ncn1` [I-40], the mortality at 100 g/ha in assay [6] was 90%; in assay [4], 100%. Also, the mortality at 20 mg/m2 in assay [1] lay in the range of 80 to 100%. In addition, the pest or weed control at 32 µg/disc, 100 g/ha in assay [3] was found to be 100%.

As to `Cc1nc([C@H](C)NC(=O)c2cc(Cl)cc(C(F)(F)F)c2)n(-c2cc(C#N)ncn2)n1` [I-41], the mortality at 100 g/ha in assay [6] and in assay [4] was 100% in each case. The mortality at 4 mg/m2 in assay [1] fell in the range of 80 to 100%. Besides, the mortality at 500 g/ha in assay [8] was 90%. In assay [3], the pest or weed control at 32 µg/disc, 100 g/ha was determined as 100%.

Take `C[C@H](NC(=O)c1cc(C(F)(F)F)cc(C(F)(F)F)c1)c1ncnn1-c1cc(C(N)=O)ncn1` [I-135]: the mortality at 100 g/ha in assay [4] and in assay [8] was 100% in each case. Besides, the mortality at 500 g/ha in assay [7] and in assay [8] was 100% each time. Also, the “efficacy (larvae dead or moribund)” value in assay [2] is given as 100%. The pest or weed control at 5 µg/cm2, 500 g/ha in assay [5] was determined as 100%. Also, the pest or weed control at 32 µg/disc, 100 g/ha in assay [3] worked out at 80%.
